Where “and” joins values, the source holds several entries; their conditions need not be identical. Equal entries are not always repeated. HELM strings list units from the 5' end as sugar, base in round brackets, then linkage (d deoxyribose, r ribose, m 2'-O-methyl, p phosphodiester). Methylation of C is not given here. [moe] = 2'-O-(2-methoxyethyl) (MOE); [cEt] = constrained ethyl (cEt); [sp] = phosphorothioate linkage
Molecular target: HBV
Conditions: ASO

Row | Substance | target mRNA inhibition (HepG2, 0.07 µM) | also measured
1 | RNA1{[moe](G)[sp].[moe](A)[sp].[moe](A)[sp].d(C)[sp].d(T)[sp].d(G)[sp].d(G)[sp].d(A)[sp].d(G)[sp].d(C)[sp].d(C)[sp].d(A)[sp].[moe](C)[sp].[moe](C)[sp].[moe](A)[sp].[moe](G)[sp].[moe](C)}$$$$V2.0 | 65% and 51% | –
2 | RNA1{[moe](T)[sp].[cEt](G)[sp].d(C)[sp].d(A)[sp].d(G)[sp].d(A)[sp].d(G)[sp].d(G)[sp].d(T)[sp].d(G)[sp].d(A)[sp].d(A)[sp].[cEt](G)[sp].[moe](C)[sp].[cEt](G)[sp].[moe](A)}$$$$V2.0 | 77% and 86% | target mRNA inhibition (HepG2, 0.0092593 µM): 5%; target mRNA inhibition (HepG2, 0.0277778 µM): 39%; target mRNA inhibition (HepG2, 0.0833333 µM): 70%; target mRNA inhibition (HepG2, 0.25 µM): 85%
3 | RNA1{[moe](A)[sp].[moe](G)[sp].[moe](C)[sp].d(G)[sp].d(A)[sp].d(A)[sp].d(G)[sp].d(T)[sp].d(G)[sp].d(C)[sp].d(A)[sp].d(C)[sp].d(A)[sp].[cEt](C)[sp].[cEt](G)[sp].[cEt](G)}$$$$V2.0 | 82% and 86% | target mRNA inhibition (HepG2, 0.0092593 µM): 17%; target mRNA inhibition (HepG2, 0.0277778 µM): 49%; target mRNA inhibition (HepG2, 0.0833333 µM): 79%; target mRNA inhibition (HepG2, 0.25 µM): 90%
4 | RNA1{[moe](T)[sp].[cEt](G)[sp].[cEt](A)[sp].d(A)[sp].d(C)[sp].d(A)[sp].d(A)[sp].d(A)[sp].d(T)[sp].d(G)[sp].d(G)[sp].d(C)[sp].d(A)[sp].[cEt](C)[sp].[cEt](T)[sp].[moe](A)}$$$$V2.0 | 71% and 59% | –
5 | RNA1{[moe](G)[sp].[moe](T)[sp].[moe](T)[sp].d(C)[sp].d(C)[sp].d(G)[sp].d(C)[sp].d(A)[sp].d(G)[sp].d(T)[sp].d(A)[sp].d(T)[sp].[moe](G)[sp].[moe](G)[sp].[moe](A)[sp].[moe](T)}$$$$V2.0 | 51% and 65% | –
6 | RNA1{[moe](G)[sp].[moe](A)[sp].[moe](G)[sp].[moe](G)[sp].d(T)[sp].d(G)[sp].d(A)[sp].d(A)[sp].d(G)[sp].d(C)[sp].d(G)[sp].d(A)[sp].d(A)[sp].[moe](G)[sp].[moe](T)[sp].[moe](G)[sp].[moe](C)}$$$$V2.0 | 63% and 54% | –
7 | RNA1{[moe](A)[sp].[moe](A)[sp].[moe](G)[sp].d(A)[sp].d(T)[sp].d(G)[sp].d(A)[sp].d(G)[sp].d(G)[sp].d(C)[sp].d(A)[sp].d(T)[sp].[moe](A)[sp].[moe](G)[sp].[moe](C)[sp].[moe](A)[sp].[moe](G)}$$$$V2.0 | 69% and 60% | –
8 | RNA1{[moe](T)[sp].[cEt](G)[sp].[cEt](C)[sp].d(A)[sp].d(G)[sp].d(A)[sp].d(G)[sp].d(G)[sp].d(T)[sp].d(G)[sp].d(A)[sp].d(A)[sp].d(G)[sp].[cEt](C)[sp].[cEt](G)[sp].[moe](A)}$$$$V2.0 | 71% and 73% | –
9 | RNA1{[moe](A)[sp].[moe](C)[sp].[moe](G)[sp].[moe](T)[sp].[moe](G)[sp].d(C)[sp].d(A)[sp].d(G)[sp].d(A)[sp].d(G)[sp].d(G)[sp].d(T)[sp].d(G)[sp].d(A)[sp].[moe](A)[sp].[moe](G)}$$$$V2.0 | 6% and 13% | –
10 | RNA1{[moe](A)[sp].[moe](A)[sp].[moe](C)[sp].d(T)[sp].d(G)[sp].d(G)[sp].d(A)[sp].d(G)[sp].d(C)[sp].d(C)[sp].d(A)[sp].d(C)[sp].[moe](C)[sp].[moe](A)[sp].[moe](G)[sp].[moe](C)[sp].[moe](A)}$$$$V2.0 | 69% and 58% | –
11 | RNA1{[moe](G)[sp].[cEt](G)[sp].[cEt](T)[sp].d(G)[sp].d(A)[sp].d(A)[sp].d(G)[sp].d(C)[sp].d(G)[sp].d(A)[sp].d(A)[sp].d(G)[sp].d(T)[sp].[cEt](G)[sp].[cEt](C)[sp].[moe](A)}$$$$V2.0 | 79% and 75% | –
12 | RNA1{[moe](C)[sp].[moe](C)[sp].d(A)[sp].d(C)[sp].d(T)[sp].d(G)[sp].d(A)[sp].d(A)[sp].d(C)[sp].d(A)[sp].d(A)[sp].[moe](A)[sp].[moe](T)[sp].[moe](G)[sp].[moe](G)[sp].[moe](C)}$$$$V2.0 | 74% and 70% | target mRNA inhibition (HepG2, 0.0092593 µM): 8%; target mRNA inhibition (HepG2, 0.0277778 µM): 27%; target mRNA inhibition (HepG2, 0.0833333 µM): 54%; target mRNA inhibition (HepG2, 0.25 µM): 76%
13 | RNA1{[moe](T)[sp].[moe](G)[sp].d(A)[sp].d(A)[sp].d(G)[sp].d(C)[sp].d(G)[sp].d(A)[sp].d(A)[sp].d(G)[sp].d(T)[sp].[moe](G)[sp].[moe](C)[sp].[moe](A)[sp].[moe](C)[sp].[moe](A)}$$$$V2.0 | 69% and 54% | –
14 | RNA1{[moe](A)[sp].[moe](C)[sp].[moe](C)[sp].d(A)[sp].d(A)[sp].d(T)[sp].d(T)[sp].d(T)[sp].d(A)[sp].d(T)[sp].d(G)[sp].d(C)[sp].d(C)[sp].[cEt](T)[sp].[cEt](A)[sp].[cEt](C)}$$$$V2.0 | 24% and 28% | –
15 | RNA1{[moe](C)[sp].[moe](G)[sp].[moe](A)[sp].d(A)[sp].d(C)[sp].d(C)[sp].d(A)[sp].d(C)[sp].d(T)[sp].d(G)[sp].d(A)[sp].d(A)[sp].[moe](C)[sp].[moe](A)[sp].[moe](A)[sp].[moe](A)[sp].[moe](T)}$$$$V2.0 | 60% and 50% | –
16 | RNA1{[moe](G)[sp].[moe](G)[sp].[moe](A)[sp].d(G)[sp].d(T)[sp].d(T)[sp].d(C)[sp].d(C)[sp].d(G)[sp].d(C)[sp].d(A)[sp].d(G)[sp].d(T)[sp].[cEt](A)[sp].[cEt](T)[sp].[cEt](G)}$$$$V2.0 | 74% and 82% | target mRNA inhibition (HepG2, 0.0092593 µM): 0%; target mRNA inhibition (HepG2, 0.0277778 µM): 25%; target mRNA inhibition (HepG2, 0.0833333 µM): 53%; target mRNA inhibition (HepG2, 0.25 µM): 72%

Row | Substance | target mRNA inhibition (HepG2, 0.07 µM) | also measured
17 | RNA1{[moe](A)[sp].[moe](G)[sp].[moe](C)[sp].[moe](G)[sp].[moe](A)[sp].d(A)[sp].d(G)[sp].d(T)[sp].d(G)[sp].d(C)[sp].d(A)[sp].d(C)[sp].d(A)[sp].d(C)[sp].[moe](G)[sp].[moe](G)}$$$$V2.0 | 79% and 74% | –
18 | RNA1{[moe](G)[sp].[moe](A)[sp].d(G)[sp].d(G)[sp].d(C)[sp].d(A)[sp].d(T)[sp].d(A)[sp].d(G)[sp].d(C)[sp].d(A)[sp].[moe](G)[sp].[moe](C)[sp].[moe](A)[sp].[moe](G)[sp].[moe](G)[sp].[moe](A)}$$$$V2.0 | 64% and 47% | –
19 | RNA1{[moe](G)[sp].[cEt](A)[sp].d(A)[sp].d(C)[sp].d(T)[sp].d(G)[sp].d(G)[sp].d(A)[sp].d(G)[sp].d(C)[sp].d(C)[sp].d(A)[sp].[cEt](C)[sp].[moe](C)[sp].[cEt](A)[sp].[moe](G)}$$$$V2.0 | 68% and 56% | –
20 | RNA1{[moe](A)[sp].[moe](C)[sp].[moe](T)[sp].[moe](A)[sp].[moe](G)[sp].d(T)[sp].d(A)[sp].d(A)[sp].d(A)[sp].d(C)[sp].d(T)[sp].d(G)[sp].d(A)[sp].d(G)[sp].[moe](C)[sp].[moe](C)}$$$$V2.0 | 64% and 66% | –
21 | RNA1{[moe](C)[sp].[moe](G)[sp].[moe](C)[sp].d(A)[sp].d(G)[sp].d(T)[sp].d(A)[sp].d(T)[sp].d(G)[sp].d(G)[sp].d(A)[sp].d(T)[sp].d(C)[sp].[cEt](G)[sp].[cEt](G)[sp].[cEt](C)}$$$$V2.0 | 85% and 84% | target mRNA inhibition (HepG2, 0.0092593 µM): 0%; target mRNA inhibition (HepG2, 0.0277778 µM): 50%; target mRNA inhibition (HepG2, 0.0833333 µM): 74%; target mRNA inhibition (HepG2, 0.25 µM): 81%
22 | RNA1{[moe](A)[sp].[moe](G)[sp].[moe](T)[sp].d(C)[sp].d(C)[sp].d(A)[sp].d(C)[sp].d(C)[sp].d(A)[sp].d(C)[sp].d(G)[sp].d(A)[sp].d(G)[sp].[cEt](T)[sp].[cEt](C)[sp].[cEt](T)}$$$$V2.0 | 35% and 29% | –
23 | RNA1{[moe](A)[sp].[moe](C)[sp].[moe](T)[sp].[moe](A)[sp].d(G)[sp].d(T)[sp].d(A)[sp].d(A)[sp].d(A)[sp].d(C)[sp].d(T)[sp].d(G)[sp].d(A)[sp].[moe](G)[sp].[moe](C)[sp].[moe](C)[sp].[moe](A)}$$$$V2.0 | 62% and 58% | –
24 | RNA1{[moe](C)[sp].[moe](G)[sp].[moe](A)[sp].d(A)[sp].d(C)[sp].d(C)[sp].d(A)[sp].d(C)[sp].d(T)[sp].d(G)[sp].d(A)[sp].d(A)[sp].d(C)[sp].[cEt](A)[sp].[cEt](A)[sp].[cEt](A)}$$$$V2.0 | 41% and 54% | –
25 | RNA1{[moe](T)[sp].[moe](T)[sp].[moe](C)[sp].[moe](C)[sp].d(G)[sp].d(C)[sp].d(A)[sp].d(G)[sp].d(T)[sp].d(A)[sp].d(T)[sp].d(G)[sp].d(G)[sp].[moe](A)[sp].[moe](T)[sp].[moe](C)}$$$$V2.0 | 43% and 49% | –
26 | RNA1{[moe](G)[sp].[moe](G)[sp].[moe](T)[sp].[moe](G)[sp].[moe](A)[sp].[moe](A)[sp].d(G)[sp].d(C)[sp].d(G)[sp].d(A)[sp].d(A)[sp].d(G)[sp].d(T)[sp].d(G)[sp].d(C)[sp].[moe](A)[sp].[moe](C)}$$$$V2.0 | 85% and 67% | –
27 | RNA1{[moe](C)[sp].[moe](C)[sp].[moe](A)[sp].[moe](A)[sp].[moe](T)[sp].d(T)[sp].d(T)[sp].d(A)[sp].d(T)[sp].d(G)[sp].d(C)[sp].d(C)[sp].d(T)[sp].d(A)[sp].[moe](C)[sp].[moe](A)}$$$$V2.0 | 15% and 6% | –
28 | RNA1{[moe](T)[sp].[moe](G)[sp].[moe](A)[sp].[moe](G)[sp].[moe](G)[sp].d(C)[sp].d(A)[sp].d(T)[sp].d(A)[sp].d(G)[sp].d(C)[sp].d(A)[sp].d(G)[sp].d(C)[sp].[moe](A)[sp].[moe](G)[sp].[moe](G)}$$$$V2.0 | 45% and 44% | –
29 | RNA1{[moe](G)[sp].[moe](A)[sp].d(G)[sp].d(A)[sp].d(A)[sp].d(G)[sp].d(T)[sp].d(C)[sp].d(C)[sp].d(A)[sp].d(C)[sp].[moe](C)[sp].[moe](A)[sp].[moe](C)[sp].[moe](G)[sp].[moe](A)[sp].[moe](G)}$$$$V2.0 | 35% and 21% | –
30 | RNA1{[moe](T)[sp].[moe](T)[sp].[moe](C)[sp].d(C)[sp].d(G)[sp].d(C)[sp].d(A)[sp].d(G)[sp].d(T)[sp].d(A)[sp].d(T)[sp].d(G)[sp].d(G)[sp].[cEt](A)[sp].[cEt](T)[sp].[cEt](C)}$$$$V2.0 | 60% and 68% | –
31 | RNA1{[moe](A)[sp].[moe](A)[sp].[moe](C)[sp].d(T)[sp].d(G)[sp].d(G)[sp].d(A)[sp].d(G)[sp].d(C)[sp].d(C)[sp].d(A)[sp].d(C)[sp].[moe](C)[sp].[moe](A)[sp].[moe](G)[sp].[moe](C)}$$$$V2.0 | 59% and 56% | –

Reference: the OligoGym collection
